Measured values as given in BindingDB's records for doi:10.2165/00003495-200262180-00006 (Adis International, 2002).
pKi: −log10 of the molar value.

Molecular target: Prostaglandin G/H synthase 1 (Homo sapiens, UniProt P23219)
Sequence (P23219 whole entry): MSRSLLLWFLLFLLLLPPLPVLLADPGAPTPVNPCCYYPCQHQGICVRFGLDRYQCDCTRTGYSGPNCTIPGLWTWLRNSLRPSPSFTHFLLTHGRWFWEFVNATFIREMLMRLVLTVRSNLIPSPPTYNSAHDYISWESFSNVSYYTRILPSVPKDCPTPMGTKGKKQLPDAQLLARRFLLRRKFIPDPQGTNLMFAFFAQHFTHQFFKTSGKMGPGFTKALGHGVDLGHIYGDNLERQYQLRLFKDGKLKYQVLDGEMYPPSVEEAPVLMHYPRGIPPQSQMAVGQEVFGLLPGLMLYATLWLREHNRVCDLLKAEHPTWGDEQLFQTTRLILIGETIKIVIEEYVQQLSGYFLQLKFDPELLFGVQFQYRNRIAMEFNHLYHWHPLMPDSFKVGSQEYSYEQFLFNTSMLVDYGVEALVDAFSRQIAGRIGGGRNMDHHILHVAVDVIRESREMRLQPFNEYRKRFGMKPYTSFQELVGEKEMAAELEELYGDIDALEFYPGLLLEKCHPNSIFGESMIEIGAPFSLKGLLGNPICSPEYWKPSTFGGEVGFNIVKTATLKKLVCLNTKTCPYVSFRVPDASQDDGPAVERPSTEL

pKi: < 5.00
SMILES: Cc1ccc(-c2ncc(Cl)cc2-c2ccc(S(C)(=O)=O)cc2)cn1
